Experimental data taken from patent US20240018153A1, “BENZENESULFONAMIDE DERIVATIVES AND USES THEREOF” (2692372 ONTARIO, INC., priority 2020, published 2024).

Columns and labels:
EGFR = EGFR (Homo sapiens (Human), UniProt P00533); test: HTRF KinEASE-TK kinase assay, EGFR; assay type: biochemical; conditions: 3 h preincubation; for remaining activity at 1 µM: 1 μM compound, read-out: % EGFR Remaining activity vs DMSO (1 μM, 3 h); for remaining activity at 10 µM: 10 μM compound, read-out: % EGFR Remaining activity vs DMSO (10 μM, 3 h)
Protocol: Kinase activity was monitored using a HTRF® KinEASE-TK kit from Cisbio (62TK0PEC). The buffer used was 1× kinase buffer supplemented with 2 mM MnCl2, 5 mM MgCl2, 1 mM TCEP and 100× diluted Supplementary Enzyme Buffer. EGFR was purchased from Promega. […] Reaction with substrate was then initiated by adding biotinylated substrate and ATP. […] After 60 min of incubation, the fluorescence emission was measured at 620 nm and 665 nm. The ratio of Em 665 nm to Em 620 nm was proportional to the amount of substrate phosphorylated by the kinase.
For initial screening, enzymes were pre incubated with compounds at 2 different concentrations (1 and 10 uM final) and 0.5% DMSO.

BMX = BMX (Homo sapiens (Human), UniProt P51813); test: HTRF KinEASE-TK kinase assay, BMX; assay type: biochemical; conditions: for remaining activity at 1 µM: 1 uM compound; for remaining activity at 1 µM / remaining activity at 10 µM: 3 h preincubation; for remaining activity at 10 µM: 10 uM compound; for IC50: dose response
Protocol: (§1) Kinase activity was monitored using a HTRF® KinEASE-TK kit from Cisbio (62TK0PEC). […] BMX was purchased from Promega. 0.333 ng/ul BMX (3.03 nM) was preincubated in the absence or presence of inhibitor at room temperature for 3 hours. The reaction with substrate was then initiated by adding biotinylated substrate and ATP. […] Reaction was terminated by adding 31.25 nM SA-XL665 and 100 fold diluted europium labelled antibody (Eu-Ab), diluted in 1× detection buffer that contained EDTA. After 60 min of incubation, the fluorescence emission was measured at 620 nm and 665 nm. The ratio of Em 665 nm to Em 620 nm was proportional to the amount of substrate phosphorylated by the kinase.

BTK [1] = biological target: T1, BTK (Homo sapiens (Human), UniProt Q06187); test: HTRF KinEASE-TK kinase assay, BTK; assay type: biochemical; conditions: 3 h preincubation; for remaining activity at 1 µM: 1 μM compound, read-out: % BTK Remaining activity vs DMSO (1 μM, 3 h); for remaining activity at 10 µM: 10 μM compound, read-out: % BTK Remaining activity vs DMSO (10 μM, 3 h)
Protocol: Kinase activity was monitored using a HTRF® KinEASE-TK kit from Cisbio (62TK0PEC). For BTK, the 1× kinase buffer was supplemented with 10 mM MnCl2, 5 mM MgCl2, 1 uM ATPγS, 1 mM TCEP and 100 fold diluted Supplementary Enzyme Buffer. BTK was purchased from Promega. […] Reaction with substrate was then initiated by adding biotinylated substrate and ATP and the reaction was allowed to proceed for 45 min. […] After 60 min of incubation, the fluorescence emission was measured at 620 nm and 665 nm. The ratio of Em 665 nm to Em 620 nm was proportional to the amount of substrate phosphorylated by the kinase.

FGFR4 = FGFR4 (Homo sapiens (Human), UniProt P22455); test: HTRF KinEASE-TK kinase assay, FGFR4; assay type: biochemical; conditions: for remaining activity at 1 µM: read-out: % FGFR4 Remaining activity vs DMSO (1 μM, 3 h); for remaining activity at 10 µM: read-out: % FGFR4 Remaining activity vs DMSO (10 μM, 3 h); for IC50: dose response
Protocol: as §1, with “FGFR-4” for “BMX”, “FGFR4 (5.12” for “BMX (3.03”, “Reaction” for “The reaction”, “The reaction” for “Reaction”

BTK [2] = biological target: T1, BTK; test: Ramos RA1 cell lysis and immunoassay, phospho-BTK (Y223) inhibition; assay type: cell-based; design: key: X: BTK bound and autophosphoration of BTK inhibited in cells; conditions: RAMOS cells
Protocol: Ramos RA 1 cells (ATCC) were cultured in RPMI-1640 media (Wisent) supplemented with 10% heat-inactivated FBS and 1% penicillin/streptomycin. Cells were seeded in 6-well plates at 1.71×10^6 cells/well and incubated at 37° C., 5% CO2 for 16 hours. Cells were treated with compound at the indicated concentrations or DMSO alone and incubated at 37° C., 5% CO2 for 24 hours. Cell suspensions were centrifugated at 1,400-1,600 RPM for 5 minutes at room temperature and supernatants were discarded. Cell pellets were resuspended with 1× RIPA buffer (Millipore) and incubated on ice for 15 minutes. Protein lysates were extracted by centrifugating at 20,000 RPM for 20 minutes at 4° C. Proteins were separated and total BTK protein levels were quantified by Simple Western Immunoassay (ProteinSimple) using the 12-230 kDa Jess Separation Module according to the manufacturer's protocol, using a protein concentration of 0.25 μg/μl and antibodies targeting BTK (clone #D3H5, Cell Signalling) and β-Actin (clone #AC-15, Santa Cruz) diluted to 1:400 and 1:10, respectively, where the latter was used as a loading control. An equal ratio of rabbit and mouse HRP-conjugated secondary antibodies was used for detection. BTK protein levels were quantified relative to S-Actin loading levels and subsequently normalized to the DMSO control. Phosphorylated BTK levels were quantified using the Protein Normalization Assay Module for Jess (ProteinSimple) according to the manufacturer's protocol, using a protein concentration of 1.5 μg/μl and an antibody targeting pBTK (Y223) (Cell Signalling) diluted to 1:50. Phosphorylated BTK levels were quantified relative to the Protein Normalization Reagent and subsequently normalized to the DMSO control.

JAK3 = JAK3 (Homo sapiens (Human), UniProt P52333); test: HTRF KinEASE-TK kinase assay, JAK3; assay type: biochemical; conditions: for remaining activity at 1 µM: read-out: % JAK3 Remaining activity vs DMSO (1 μM, 3 h); for remaining activity at 10 µM: read-out: % JAK3 Remaining activity vs DMSO (10 μM, 3 h)
Protocol: as §1, with “JAK-3” for “BMX”, “0.0133” for “0.333”, “JAK3 (0.21” for “BMX (3.03”, “Reaction” for “The reaction”, “The reaction” for “Reaction”

RIPK2 = RIPK2 (Homo sapiens (Human), UniProt O43353); test: In vitro RIPK2 inhibition; assay type: biochemical; conditions: for remaining activity at 1 µM: read-out: % RIPK2 Remaining activity vs DMSO (1 μM, 3 h); for remaining activity at 10 µM: read-out: % RIPK2 Remaining activity vs DMSO (10 μM, 3 h)
Chain of RIPK2 (O43353 whole entry, species assumed): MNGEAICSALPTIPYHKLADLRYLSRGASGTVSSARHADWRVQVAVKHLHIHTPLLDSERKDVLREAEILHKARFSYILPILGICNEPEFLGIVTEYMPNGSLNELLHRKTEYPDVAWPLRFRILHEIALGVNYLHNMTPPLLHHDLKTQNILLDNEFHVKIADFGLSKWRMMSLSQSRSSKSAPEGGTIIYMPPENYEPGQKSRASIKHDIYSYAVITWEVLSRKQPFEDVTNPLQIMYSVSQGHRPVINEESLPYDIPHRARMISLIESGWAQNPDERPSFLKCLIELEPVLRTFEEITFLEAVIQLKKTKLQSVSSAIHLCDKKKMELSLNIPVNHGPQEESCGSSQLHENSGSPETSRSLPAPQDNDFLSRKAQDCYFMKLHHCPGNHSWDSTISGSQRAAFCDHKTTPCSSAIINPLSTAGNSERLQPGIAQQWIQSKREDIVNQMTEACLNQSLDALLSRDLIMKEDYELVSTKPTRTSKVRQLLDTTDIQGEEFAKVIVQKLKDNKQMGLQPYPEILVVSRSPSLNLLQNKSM

Chain of BMX (P51813 whole entry): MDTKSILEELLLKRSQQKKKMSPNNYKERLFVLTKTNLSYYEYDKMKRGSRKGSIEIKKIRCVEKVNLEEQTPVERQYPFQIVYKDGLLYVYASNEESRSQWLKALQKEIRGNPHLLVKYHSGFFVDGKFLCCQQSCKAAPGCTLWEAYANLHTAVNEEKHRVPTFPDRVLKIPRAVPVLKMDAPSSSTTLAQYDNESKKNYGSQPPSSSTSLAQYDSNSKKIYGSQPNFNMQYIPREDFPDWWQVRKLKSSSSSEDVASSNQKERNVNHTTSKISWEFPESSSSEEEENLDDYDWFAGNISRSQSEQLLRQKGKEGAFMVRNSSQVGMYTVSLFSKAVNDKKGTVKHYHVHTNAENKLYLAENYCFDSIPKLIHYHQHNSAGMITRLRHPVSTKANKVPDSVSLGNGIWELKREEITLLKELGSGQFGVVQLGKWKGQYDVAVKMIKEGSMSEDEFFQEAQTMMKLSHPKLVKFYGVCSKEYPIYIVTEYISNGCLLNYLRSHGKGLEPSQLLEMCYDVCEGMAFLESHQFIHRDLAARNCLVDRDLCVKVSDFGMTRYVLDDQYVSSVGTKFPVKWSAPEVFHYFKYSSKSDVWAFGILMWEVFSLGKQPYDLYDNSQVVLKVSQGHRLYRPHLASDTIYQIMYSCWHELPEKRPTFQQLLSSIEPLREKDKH
Chain of EGFR (P00533 25-1210): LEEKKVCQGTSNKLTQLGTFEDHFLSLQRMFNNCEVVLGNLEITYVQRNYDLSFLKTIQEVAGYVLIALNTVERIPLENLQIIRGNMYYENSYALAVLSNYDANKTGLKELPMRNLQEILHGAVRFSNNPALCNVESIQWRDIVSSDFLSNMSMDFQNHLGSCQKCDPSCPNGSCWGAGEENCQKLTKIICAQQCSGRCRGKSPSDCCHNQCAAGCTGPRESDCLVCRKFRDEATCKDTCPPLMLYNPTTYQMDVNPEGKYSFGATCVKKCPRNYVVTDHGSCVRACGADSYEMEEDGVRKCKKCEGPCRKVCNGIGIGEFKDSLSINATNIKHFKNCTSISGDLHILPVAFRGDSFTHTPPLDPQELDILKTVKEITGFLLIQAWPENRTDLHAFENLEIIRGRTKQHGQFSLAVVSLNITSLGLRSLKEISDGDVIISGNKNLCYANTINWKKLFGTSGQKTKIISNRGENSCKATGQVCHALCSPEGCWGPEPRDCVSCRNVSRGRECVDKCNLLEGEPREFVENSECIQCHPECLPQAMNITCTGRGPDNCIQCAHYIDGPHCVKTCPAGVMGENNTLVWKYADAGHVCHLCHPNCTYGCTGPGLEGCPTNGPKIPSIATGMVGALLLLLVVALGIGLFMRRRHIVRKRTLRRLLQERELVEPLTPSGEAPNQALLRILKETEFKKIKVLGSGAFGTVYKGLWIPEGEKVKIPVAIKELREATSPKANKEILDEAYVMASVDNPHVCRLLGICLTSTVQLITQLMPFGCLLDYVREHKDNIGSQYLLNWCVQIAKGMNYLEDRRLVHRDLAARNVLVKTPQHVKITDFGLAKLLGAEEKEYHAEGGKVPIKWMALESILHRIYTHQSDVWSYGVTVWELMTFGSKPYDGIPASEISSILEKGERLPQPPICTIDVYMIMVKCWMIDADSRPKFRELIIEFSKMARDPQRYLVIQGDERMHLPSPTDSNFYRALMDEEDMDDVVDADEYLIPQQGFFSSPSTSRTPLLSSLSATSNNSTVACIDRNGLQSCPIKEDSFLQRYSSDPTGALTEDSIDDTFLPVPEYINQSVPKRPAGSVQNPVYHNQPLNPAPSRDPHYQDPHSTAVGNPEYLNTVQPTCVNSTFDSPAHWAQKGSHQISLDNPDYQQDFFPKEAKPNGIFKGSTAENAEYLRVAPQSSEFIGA
Chain of JAK3 (P52333 781-1124): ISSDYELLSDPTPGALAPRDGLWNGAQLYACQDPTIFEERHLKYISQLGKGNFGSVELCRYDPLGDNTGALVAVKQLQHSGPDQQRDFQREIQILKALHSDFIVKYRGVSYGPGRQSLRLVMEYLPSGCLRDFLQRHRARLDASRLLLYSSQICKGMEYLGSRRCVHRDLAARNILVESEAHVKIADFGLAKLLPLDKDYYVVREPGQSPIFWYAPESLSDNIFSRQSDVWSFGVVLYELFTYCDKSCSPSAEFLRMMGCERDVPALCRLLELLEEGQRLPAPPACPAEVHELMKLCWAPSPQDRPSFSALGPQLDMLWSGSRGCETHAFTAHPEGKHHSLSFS
Chain of FGFR4 (P22455 22-802): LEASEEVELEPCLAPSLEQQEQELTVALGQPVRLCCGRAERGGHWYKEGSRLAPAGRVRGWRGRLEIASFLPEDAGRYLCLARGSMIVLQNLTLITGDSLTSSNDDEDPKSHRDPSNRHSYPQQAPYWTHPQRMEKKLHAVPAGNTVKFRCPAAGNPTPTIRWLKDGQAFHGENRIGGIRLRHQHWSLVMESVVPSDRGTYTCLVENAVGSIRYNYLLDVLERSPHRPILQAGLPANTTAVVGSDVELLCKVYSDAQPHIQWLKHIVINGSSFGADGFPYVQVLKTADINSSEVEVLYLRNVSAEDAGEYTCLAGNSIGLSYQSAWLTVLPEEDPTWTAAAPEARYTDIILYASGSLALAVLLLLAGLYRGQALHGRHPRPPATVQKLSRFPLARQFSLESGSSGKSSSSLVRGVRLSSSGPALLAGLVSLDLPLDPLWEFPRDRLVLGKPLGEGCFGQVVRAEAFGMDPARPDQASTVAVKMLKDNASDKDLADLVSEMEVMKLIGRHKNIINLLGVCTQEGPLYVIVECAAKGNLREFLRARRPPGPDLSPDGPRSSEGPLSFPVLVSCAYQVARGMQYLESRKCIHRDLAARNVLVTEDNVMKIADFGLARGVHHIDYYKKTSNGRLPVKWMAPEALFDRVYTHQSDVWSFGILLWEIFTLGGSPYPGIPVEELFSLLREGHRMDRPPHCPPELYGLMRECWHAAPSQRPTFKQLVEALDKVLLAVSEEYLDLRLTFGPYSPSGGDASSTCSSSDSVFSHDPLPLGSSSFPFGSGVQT
T1 sequence (Q06187 whole entry): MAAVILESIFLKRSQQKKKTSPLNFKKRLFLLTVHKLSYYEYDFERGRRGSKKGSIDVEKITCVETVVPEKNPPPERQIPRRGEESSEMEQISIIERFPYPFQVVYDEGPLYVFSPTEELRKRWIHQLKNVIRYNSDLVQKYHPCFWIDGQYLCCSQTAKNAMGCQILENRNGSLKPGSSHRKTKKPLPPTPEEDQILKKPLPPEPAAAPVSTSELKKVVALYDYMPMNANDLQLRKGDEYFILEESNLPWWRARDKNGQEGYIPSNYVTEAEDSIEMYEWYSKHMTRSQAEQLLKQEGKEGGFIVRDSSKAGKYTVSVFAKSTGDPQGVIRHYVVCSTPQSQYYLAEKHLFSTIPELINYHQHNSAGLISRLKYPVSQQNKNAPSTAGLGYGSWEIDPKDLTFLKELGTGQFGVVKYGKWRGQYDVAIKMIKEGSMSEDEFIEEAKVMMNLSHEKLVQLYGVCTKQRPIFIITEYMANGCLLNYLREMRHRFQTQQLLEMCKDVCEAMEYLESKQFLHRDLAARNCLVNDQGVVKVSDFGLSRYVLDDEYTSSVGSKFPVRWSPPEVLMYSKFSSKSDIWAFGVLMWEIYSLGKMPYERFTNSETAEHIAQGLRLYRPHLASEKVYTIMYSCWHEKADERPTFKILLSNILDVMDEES

Structure (SMILES) | remaining activity at 1 µM (EGFR) [%] | remaining activity at 10 µM (EGFR) [%] | remaining activity at 1 µM (BMX) [%] | remaining activity at 10 µM (BMX) [%] | IC50 (BMX) [nM] | remaining activity at 1 µM (BTK [1]) [%] | remaining activity at 10 µM (BTK [1]) [%] | remaining activity at 1 µM (FGFR4) [%] | remaining activity at 10 µM (FGFR4) [%] | pBTK inhibition (RAMOS, 24 h) (BTK [2]; compound concentration 1 μM) | remaining activity at 1 µM (JAK3) [%] | remaining activity at 10 µM (JAK3) [%] | IC50 (BTK [1]; dose response, read-out: BTK Inhibition IC50) [nM] | IC50 (FGFR4) [nM] | pBTK inhibition (RAMOS, 24 h) (BTK [2]; compound concentration 2.5 μM) | IC50 (JAK3; dose response) [nM] | pBTK inhibition (RAMOS, 24 h) (BTK [2]; compound concentration 10 μM) | remaining activity at 1 µM (RIPK2) [%] | remaining activity at 10 µM (RIPK2) [%]
Nc1ncnc2c1c(-c1ccc(Oc3ccccc3)cc1)nn2CCNS(=O)(=O)c1c(F)c(F)c(F)c(F)c1OCF [Compound I-25, N-(2-(4-amino-3-(4-phenoxyphenyl)-1H-pyrazolo[3,4-d]pyrimidin-1-yl)ethyl)-2,3,4,5-tetrafluoro-6-(fluoromethoxy)benzenesulfonamide] | > 90 | > 90 | < 50 | < 50 | < 1000 | < 50 | < 50 | 50 to 90 | < 50 | X | > 90 | 50 to 90 |  |  |  |  |  |  | 
COCCOc1ccc(Nc2ncc(F)c(Nc3cccc(NS(=O)(=O)c4c(F)c(F)c(F)c(F)c4C(F)(F)F)c3)n2)cc1 [Compound I-53, 2,3,4,5-tetrafluoro-N-(3-((5-fluoro-2-((4-(2-methoxyethoxy)phenyl)amino)pyrimidin-4-yl)amino)phenyl)-6-(trifluoromethyl)benzenesulfonamide] | 50 to 90 | < 50 | < 50 | < 50 |  | < 50 | < 50 | < 50 | < 50 |  | < 50 | < 50 | < 1000 | < 1000 | X | < 1000 |  |  | 
COc1c(F)c(F)c(F)c(F)c1S(=O)(=O)n1nc(-c2ccc(Oc3ccccc3)cc2)c2c(N)ncnc21 [Compound I-23, 3-(4-phenoxyphenyl)-1-((2,3,4,5-tetrafluoro-6-methoxyphenyl)sulfonyl)-1H-pyrazolo[3,4-d]pyrimidin-4-amine] |  |  | < 50 | < 50 |  | < 50 | < 50 | > 90 | > 90 | X | > 90 | 50 to 90 |  |  |  |  |  |  | 
Nc1ncnc2c1c(-c1ccc(Oc3ccccc3)cc1)nn2CCNS(=O)(=O)c1c(F)c(F)c(F)c(F)c1C(F)F [Compound I-22, N-(2-(4-amino-3-(4-phenoxyphenyl)-1H-pyrazolo[3,4-d]pyrimidin-1-yl)ethyl)-2-(difluoromethyl)-3,4,5,6-tetrafluorobenzenesulfonamide] | > 90 | < 50 | < 50 | < 50 |  | < 50 | < 50 | > 90 | < 50 | X | > 90 | 50 to 90 |  |  |  |  |  |  | 
COCCOc1ccc(Nc2ncc(F)c(Nc3cccc(NS(=O)(=O)c4c(F)c(F)c(F)c(F)c4C(F)F)c3)n2)cc1 [Compound I-51, 2-(difluoromethyl)-3,4,5,6-tetrafluoro-N-(3-((5-fluoro-2-((4-(2-methoxyethoxy)phenyl)amino)pyrimidin-4-yl)amino)phenyl)benzenesulfonamide] | > 90 | > 90 | < 50 | < 50 |  | 50 to 90 | < 50 | > 90 | < 50 |  | > 90 | 50 to 90 |  |  |  |  | X |  | 
CN(CCn1nc(-c2ccc(Oc3ccccc3)cc2)c2c(N)ncnc21)C(=O)c1c(F)c(F)c(F)c(F)c1S(C)(=O)=O [Compound I-28, N-(2-(4-amino-3-(4-phenoxyphenyl)-1H-pyrazolo[3,4-d]pyrimidin-1-yl)ethyl)-2,3,4,5-tetrafluoro-N-methyl-6-(methylsulfonyl)benzamide] | < 50 | < 50 | < 50 | < 50 | < 1000 | < 50 | < 50 | < 50 | < 50 |  | > 90 | < 50 |  | < 1000 |  |  |  | 50 to 90 | > 90
CN(C)S(=O)(=O)c1c(F)c(F)c(F)c(F)c1C(=O)N1CC(n2nc(-c3ccc(Oc4ccccc4)cc3)c3c(N)ncnc32)C1 [Compound I-29, 2-(3-(4-amino-3-(4-phenoxyphenyl)-1H-pyrazolo[3,4-d]pyrimidin-1-yl)azetidine-1-carbonyl)-3,4,5,6-tetrafluoro-N,N-dimethylbenzenesulfonamide] | < 50 | < 50 | < 50 | < 50 |  | < 50 | < 50 | 50 to 90 | > 90 |  | < 50 | < 50 |  |  |  |  |  | 50 to 90 | 50 to 90
